Experimental data as given in PubChem BioAssay (NCI).
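Cells were grown in 96-well plates and exposed to each compound for 48 hours at five concentrations; endpoints were interpolated linearly between bracketing concentrations, or set to the highest concentration if not reached. GI50 marks 50% less growth. TGI: total growth inhibition.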

Assays:
Assay in all cases: NCI anticancer screen, dose series, 48 h
SN12C renal = test system: SN12C renal
A549 NSCLC = test system: A549 NSCLC
HCT-15 colon = test system: HCT-15 colon
U251 CNS = test system: U251 CNS
SNB-19 CNS = test system: SNB-19 CNS
SR leukemia = test system: SR leukemia
OVCAR-3 ovarian = test system: OVCAR-3 ovarian
MDA-MB-231 breast = test system: MDA-MB-231 breast
KM12 colon = test system: KM12 colon
DU-145 prostate = test system: DU-145 prostate
HOP-62 NSCLC = test system: HOP-62 NSCLC
SNB-75 CNS = test system: SNB-75 CNS
CCRF-CEM leukemia = test system: CCRF-CEM leukemia
MCF7 breast = test system: MCF7 breast
MALME-3M melanoma = test system: MALME-3M melanoma
RXF 393 renal = test system: RXF 393 renal
RPMI-8226 leukemia = test system: RPMI-8226 leukemia
UO-31 renal = test system: UO-31 renal
SW-620 colon = test system: SW-620 colon
IGROV1 ovarian = test system: IGROV1 ovarian
HOP-92 NSCLC = test system: HOP-92 NSCLC
SF-295 CNS = test system: SF-295 CNS
SF-268 CNS = test system: SF-268 CNS
K-562 leukemia = test system: K-562 leukemia
OVCAR-8 ovarian = test system: OVCAR-8 ovarian
HT29 colon = test system: HT29 colon

Clc1ccc2c(N3CCN(c4ccnc(NC5CCCCC5)n4)CC3)ccnc2c1
GI50 (SN12C renal): 1.79 µM
TGI (SN12C renal): 3.6 µM
GI50 (A549 NSCLC): 3.17 µM
TGI (A549 NSCLC): 10.8 µM
GI50 (HCT-15 colon): 2.26 µM
TGI (HCT-15 colon): 6.74 µM
GI50 (U251 CNS): 1.62 µM
TGI (U251 CNS): 3 µM
GI50 (SNB-19 CNS): 2.47 µM
TGI (SNB-19 CNS): 7.33 µM
GI50 (SR leukemia): 1.83 µM
TGI (SR leukemia): 4.48 µM
GI50 (OVCAR-3 ovarian): 1.74 µM
TGI (OVCAR-3 ovarian): 3.49 µM
GI50 (MDA-MB-231 breast): 2.01 µM
TGI (MDA-MB-231 breast): 3.97 µM
GI50 (KM12 colon): 2.16 µM
TGI (KM12 colon): 4.49 µM
GI50 (DU-145 prostate): 3.78 µM
TGI (DU-145 prostate): 13 µM
GI50 (HOP-62 NSCLC): 2.35 µM
TGI (HOP-62 NSCLC): 5.73 µM
GI50 (SNB-75 CNS): 2.16 µM
TGI (SNB-75 CNS): 6.74 µM
GI50 (CCRF-CEM leukemia): 2.07 µM
TGI (CCRF-CEM leukemia): 6.07 µM
GI50 (MCF7 breast): 1.76 µM
TGI (MCF7 breast): 4.02 µM
GI50 (MALME-3M melanoma): 1.98 µM
TGI (MALME-3M melanoma): 4.02 µM
GI50 (RXF 393 renal): 1.84 µM
TGI (RXF 393 renal): 3.54 µM
GI50 (RPMI-8226 leukemia): 1.81 µM
TGI (RPMI-8226 leukemia): 4.69 µM
GI50 (UO-31 renal): 1.31 µM
TGI (UO-31 renal): 2.87 µM
GI50 (SW-620 colon): 1.68 µM
TGI (SW-620 colon): 3.72 µM
GI50 (IGROV1 ovarian): 2.27 µM
TGI (IGROV1 ovarian): 5.04 µM
GI50 (HOP-92 NSCLC): 1.68 µM
TGI (HOP-92 NSCLC): 4.99 µM
GI50 (SF-295 CNS): 1.91 µM
TGI (SF-295 CNS): 3.79 µM
GI50 (SF-268 CNS): 3.65 µM
TGI (SF-268 CNS): 13.3 µM
GI50 (K-562 leukemia): 2.19 µM
TGI (K-562 leukemia): 5.43 µM
GI50 (OVCAR-8 ovarian): 3.27 µM
TGI (OVCAR-8 ovarian): 12.6 µM
GI50 (HT29 colon): 1.85 µM
TGI (HT29 colon): 4.06 µM
